Test results: patent publication US20250092014A1, “COMPOUNDS AND METHODS OF ACTIVATING LIPOPROTEIN LIPASE” (Metrea Biosciences, Inc., priority 2021, published 2025)

Tests used:
[1] = molecular target: T1, LPL (native bovine milk protein) inactivated by ANGPTL4 (Bos taurus, UniProt P11151); test: LPL ANGPTL4 protection assay (LPL fluorescence assay, resorufin butyrate substrate); format: biochemical; details: LPL activation activity, LPL 2.5 nM, ANGPTL4 20 nM
T1 construct: from tissue; host or cells: bovine milk (LPL); E. coli (GST-ANGPTL4)
T1 sequence (P11151 29-478): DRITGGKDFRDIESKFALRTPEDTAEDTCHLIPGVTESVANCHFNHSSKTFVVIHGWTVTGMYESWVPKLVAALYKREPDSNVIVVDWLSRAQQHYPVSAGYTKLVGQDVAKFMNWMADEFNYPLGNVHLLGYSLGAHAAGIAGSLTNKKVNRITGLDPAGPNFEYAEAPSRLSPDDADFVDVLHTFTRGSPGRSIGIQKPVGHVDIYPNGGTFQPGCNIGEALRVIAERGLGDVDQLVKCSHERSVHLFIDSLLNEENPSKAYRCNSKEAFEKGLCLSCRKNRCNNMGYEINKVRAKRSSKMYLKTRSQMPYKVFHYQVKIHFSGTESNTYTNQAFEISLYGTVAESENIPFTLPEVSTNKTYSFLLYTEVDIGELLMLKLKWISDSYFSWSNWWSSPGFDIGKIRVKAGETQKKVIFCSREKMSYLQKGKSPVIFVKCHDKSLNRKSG

[2] = tested on: C57BL/6 mice; test: Oral fat tolerance test (postprandial triglyceridaemia after olive oil bolus); format: in vivo; details: overnight-fasted C57BL/6 mice, compound IP 1 h before 10 mL/kg olive oil, bled at 1, 2 and 3.5 h
Procedure: To examine to effects of test compounds on postprandial triglycerdemia, 5-7 week old C57BL/6 mice were fasted overnight (18 hours) on non-nutritive bedding (Alpha-Dri). Following the overnight fast, the mice are bled via retro-orbital sinus (25 μL) using microcapillaries (t-1 hr sample). The LPL activator test compound was then administered intraperitoneally (IP) in a dose volume of 10 ml/kg. One hour later the mice were bled for the t=0 timepoint. The mice were then immediately dosed with a 10 mL/kg oral bolus of olive oil. The mice were subsequently bled at 1-, 2-, and 3.5-hours post-olive oil administration.
Whole blood samples were collected into tubes containing 0.125% EDTA solution in saline. Diluted plasma samples were analyzed for triglyceride levels using Infinity Triglyceride reagent (Thermo) on a microtiter plate. Briefly, 10 μL of diluted sample was added the plate. 200 μL of the reagent was added and the plate was incubated for 10 minutes at 37° C. The plate was then read at 550 nm on a Molecular Devices M5 Spectrophotometer (San Jose, CA). The concentration of triglycerides in the sample was determined using a standard curve made using a dilution of triglyceride standard (Sigma-Aldrich, St. Louis, MO) using the Softmax software from Molecular Devices. All graphing and subsequent area under-the-curve and statistical analysis (Student's t Test) is performed using GraphPad Prism (version 8.0, GraphPad Software, Inc., San Diego, CA).

In the case of `O=C(O)Cc1cc(F)ccc1NC(=O)c1ccc(N2CCCCC2)c(NC(=O)c2nn(CC(F)(F)F)c3ccccc23)c1` [Compound 158, 2-(5-fluoro-2-(4-(piperidin-1-yl)-3-(1-(2,2,2-trifluoroethyl)-1H-indazole-3-carboxamido)benzamido)phenyl)acetic acid], the EC50 [1] is reported as 1.01 µM and the “hypertriglyceridemia response to oral olive oil gavage (plasma triglycerides)” value [2] is reported as “blunts hypertriglyceridemia response in a dose-dependent fashion”.
